According to the supplement of paper PMC10307832:

The cell lines below were run with COc1nc(N)nc2c1ncn2[C@@H]1O[C@H](CO)[C@@H](O)[C@@H]1O [Nelarabine] + CS(=O)(=O)N1CCN(Cc2cc3nc(-c4cccc5[nH]ncc45)nc(N4CCOCC4)c3s2)CC1 [Pictilisib] (partner 1 µM) (assay: relative viability (nuclei count vs DMSO), 5 days (fraction); higher = more cells survive). Conditions: first compound 1 µM.
Method in brief: (§1)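 The day after seeding in 1536-well plates, lung cancer cell lines were treated by pin tool with a single drug, or with a fixed anchor-drug dose together with five library-drug doses (not always all listed) in √10 steps. After 5 days, a combined fix-and-stain solution (final 0.05% Triton X-100, 1% formaldehyde, 1 ug/ml Hoechst) was added. Nuclei counted on 4× images gave relative viability as treated counts over vehicle counts, reported as the median of duplicate plates.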

Cell Line	relative viability
NCI-H1666	0.551
NCI-H1734	0.452
NCI-H1755	0.522
NCI-H1792	0.323
NCI-H1793	0.256
NCI-H1915	1.01
NCI-H1944	0.366
NCI-H1975	0.331
NCI-H1993	0.899
NCI-H2085	0.455
NCI-H2087	1.02
NCI-H2126	0.5
NCI-H2170	0.316
NCI-H2347	0.606
NCI-H2405	0.492
NCI-H3122	0.611
PC-3 [JPC-3]	0.749

What follows are cell lines tested with C=CCn1c(=O)c2cnc(Nc3ccc(N4CCN(C)CC4)cc3)nc2n1-c1cccc(C(C)(C)O)n1 [Adavosertib] + O=C(c1cc(Cc2n[nH]c(=O)c3ccccc23)ccc1F)N1CCN(C(=O)C2CC2)CC1 [Olaparib] (partner 8 µM) in the same assay as above. Conditions: first compound 0.01 µM.
Method in brief: as §1

Cell Line	relative viability
LOU-NH91	0.857
LU99A	0.238
LXF-289	1.1
NCI-H23	0.339
NCI-H322M	0.771
NCI-H358	0.563
NCI-H441	0.533
NCI-H460	0.391
NCI-H596	0.736
NCI-H647	0.549
NCI-H650	0.397
NCI-H727	0.73
NCI-H838	0.784
NCI-H1355	0.736
NCI-H1395	0.561
NCI-H1437	0.65

Cell Line	relative viability
NCI-H1651	0.17
NCI-H1666	0.774
NCI-H1734	0.584
NCI-H1755	0.87
NCI-H1792	0.464
NCI-H1793	0.739
NCI-H1915	0.258
NCI-H1944	0.41
NCI-H1975	0.873
NCI-H1993	0.97
NCI-H2085	0.831
NCI-H2087	0.663
NCI-H2126	0.909
NCI-H2170	0.643
NCI-H2347	0.584
NCI-H3122	0.662

Same assay, conditions: first compound 0.03162 µM

Cell Line	relative viability
LOU-NH91	0.917
LU99A	0.224
LXF-289	1.06
NCI-H23	0.317
NCI-H322M	0.801
NCI-H358	0.517
NCI-H441	0.477
NCI-H460	0.376
NCI-H596	0.791
NCI-H647	0.581
NCI-H650	0.412
NCI-H727	0.845
NCI-H838	0.805
NCI-H1355	0.698
NCI-H1395	0.547
NCI-H1437	0.613
NCI-H1651	0.218

Cell Line	relative viability
NCI-H1666	0.754
NCI-H1734	0.613
NCI-H1755	0.936
NCI-H1792	0.461
NCI-H1793	0.794
NCI-H1915	0.277
NCI-H1944	0.384
NCI-H1975	0.803
NCI-H1993	1.01
NCI-H2085	0.753
NCI-H2087	0.595
NCI-H2126	0.939
NCI-H2170	0.586
NCI-H2347	0.595
NCI-H2405	0.865
NCI-H3122	0.611
PC-3 [JPC-3]	1.09

Same assay, conditions: first compound 0.1 µM

Cell Line	relative viability
LOU-NH91	0.946
LU99A	0.209
LXF-289	1.13
NCI-H23	0.24
NCI-H322M	0.699
NCI-H358	0.416
NCI-H441	0.577
NCI-H460	0.308
NCI-H596	0.52
NCI-H647	0.459
NCI-H650	0.397
NCI-H727	0.683
NCI-H838	0.804
NCI-H1355	0.757
NCI-H1395	0.409
NCI-H1437	0.643
NCI-H1651	0.139

Cell Line	relative viability
NCI-H1666	0.745
NCI-H1734	0.562
NCI-H1755	0.891
NCI-H1792	0.378
NCI-H1793	0.746
NCI-H1915	0.264
NCI-H1944	0.393
NCI-H1975	0.737
NCI-H1993	0.988
NCI-H2085	0.829
NCI-H2087	0.606
NCI-H2126	0.915
NCI-H2170	0.588
NCI-H2347	0.548
NCI-H2405	0.907
NCI-H3122	0.549
PC-3 [JPC-3]	1.2

Same assay, conditions: first compound 0.3162 µM

Cell Line	relative viability
LOU-NH91	0.928
LU99A	0.179
LXF-289	1.02
NCI-H23	0.138
NCI-H322M	0.425
NCI-H358	0.329
NCI-H441	0.462
NCI-H460	0.405
NCI-H596	0.591
NCI-H647	0.209
NCI-H650	0.207
NCI-H727	0.744
NCI-H838	0.613
NCI-H1355	0.685
NCI-H1395	0.438
NCI-H1437	0.566
NCI-H1651	0.16

Cell Line	relative viability
NCI-H1666	0.738
NCI-H1734	0.352
NCI-H1755	0.72
NCI-H1792	0.459
NCI-H1793	0.529
NCI-H1915	0.269
NCI-H1944	0.403
NCI-H1975	0.63
NCI-H1993	1.26
NCI-H2085	0.759
NCI-H2087	0.604
NCI-H2126	0.919
NCI-H2170	0.448
NCI-H2347	0.54
NCI-H2405	0.898
NCI-H3122	0.575
PC-3 [JPC-3]	1.14

Each cell line was assayed with COc1nc(N)nc2c1ncn2[C@@H]1O[C@H](CO)[C@@H](O)[C@@H]1O [Nelarabine] + Nc1ncn([C@H]2C[C@H](O)[C@@H](CO)O2)c(=O)n1 [Decitabine] (partner 2 µM) in the same assay as above. Conditions: first compound 0.01 µM.
Method in brief: as §1

Cell Line	relative viability
LOU-NH91	0.896
LU99A	1.02
LXF-289	0.43
NCI-H23	0.249
NCI-H322M	0.68
NCI-H358	0.219
NCI-H441	0.214
NCI-H460	0.707
NCI-H596	1.09
NCI-H647	0.483
NCI-H650	0.305
NCI-H727	0.819
NCI-H838	0.54
NCI-H1355	0.359
NCI-H1395	0.678
NCI-H1437	0.627
NCI-H1651	0.487

Cell Line	relative viability
NCI-H1666	0.651
NCI-H1734	0.551
NCI-H1755	0.706
NCI-H1792	0.642
NCI-H1793	0.291
NCI-H1915	0.261
NCI-H1944	0.423
NCI-H1975	0.391
NCI-H1993	0.667
NCI-H2085	0.536
NCI-H2087	0.248
NCI-H2126	0.658
NCI-H2170	0.473
NCI-H2347	0.576
NCI-H2405	0.674
NCI-H3122	0.419
PC-3 [JPC-3]	0.84

Same assay, conditions: first compound 0.03162 µM

Cell Line	relative viability
LOU-NH91	0.755
LU99A	0.91
LXF-289	0.414
NCI-H23	0.272
NCI-H322M	0.662
NCI-H358	0.214
NCI-H441	0.222
NCI-H460	0.726
NCI-H596	0.972
NCI-H647	0.385
NCI-H650	0.277
NCI-H727	0.938
NCI-H838	0.432
NCI-H1355	0.347
NCI-H1395	0.65
NCI-H1437	0.651
NCI-H1651	0.725

Cell Line	relative viability
NCI-H1666	0.843
NCI-H1734	0.458
NCI-H1755	0.811
NCI-H1792	0.428
NCI-H1915	0.266
NCI-H1944	0.449
NCI-H1975	0.336
NCI-H1993	0.507
NCI-H2085	0.535
NCI-H2087	0.28
NCI-H2126	0.616
NCI-H2170	0.546
NCI-H2347	0.596
NCI-H2405	0.686
NCI-H3122	0.299
PC-3 [JPC-3]	0.81

Same assay, conditions: first compound 0.1 µM

Cell Line	relative viability
LOU-NH91	0.766
LU99A	0.971
LXF-289	0.379
NCI-H23	0.299
NCI-H322M	0.659
NCI-H358	0.171
NCI-H441	0.23
NCI-H460	0.476
NCI-H596	1.06
NCI-H647	0.381
NCI-H650	0.333
NCI-H727	0.918
NCI-H838	0.473
NCI-H1355	0.368
NCI-H1395	0.723
NCI-H1437	0.568
NCI-H1651	0.61

Cell Line	relative viability
NCI-H1666	0.736
NCI-H1734	0.491
NCI-H1755	0.734
NCI-H1792	0.573
NCI-H1793	0.535
NCI-H1915	0.258
NCI-H1944	0.457
NCI-H1975	0.426
NCI-H1993	0.526
NCI-H2085	0.52
NCI-H2087	0.309
NCI-H2126	0.563
NCI-H2170	0.484
NCI-H2347	0.615
NCI-H2405	0.745
PC-3 [JPC-3]	0.843

Same assay, conditions: first compound 0.3162 µM

Cell Line	relative viability
LOU-NH91	0.802
LU99A	0.886
LXF-289	0.39
NCI-H23	0.348
NCI-H322M	0.718
NCI-H358	0.215
NCI-H441	0.231
NCI-H460	0.525
NCI-H596	1.09
NCI-H647	0.357
NCI-H650	0.28
NCI-H727	0.769
NCI-H838	0.513
NCI-H1355	0.37
NCI-H1395	0.7
NCI-H1437	0.634
NCI-H1651	0.648

Cell Line	relative viability
NCI-H1666	0.754
NCI-H1734	0.486
NCI-H1755	0.639
NCI-H1792	0.579
NCI-H1793	0.595
NCI-H1915	0.27
NCI-H1944	0.416
NCI-H1975	0.418
NCI-H1993	0.578
NCI-H2085	0.605
NCI-H2087	0.335
NCI-H2126	0.594
NCI-H2170	0.47
NCI-H2347	0.626
NCI-H2405	0.816
NCI-H3122	0.463
PC-3 [JPC-3]	0.799

Same assay, conditions: first compound 1 µM

Cell Line	relative viability
LOU-NH91	0.809
LU99A	0.935
LXF-289	0.37
NCI-H23	0.303
NCI-H322M	0.678
NCI-H358	0.219
NCI-H441	0.22
NCI-H460	0.539
NCI-H596	1.13
NCI-H647	0.38
NCI-H650	0.33
NCI-H727	0.463
NCI-H838	0.466
NCI-H1355	0.382
NCI-H1395	0.704
NCI-H1437	0.557
NCI-H1651	0.527

Cell Line	relative viability
NCI-H1666	0.668
NCI-H1734	0.499
NCI-H1755	0.737
NCI-H1792	0.634
NCI-H1793	0.513
NCI-H1915	0.268
NCI-H1944	0.427
NCI-H1975	0.431
NCI-H1993	0.65
NCI-H2085	0.439
NCI-H2087	0.3
NCI-H2126	0.559
NCI-H2170	0.427
NCI-H2347	0.593
NCI-H2405	0.721
NCI-H3122	0.476
PC-3 [JPC-3]	0.872
